Laboratory results published in patent US20060045953A1 (priority 2004, published 2006).

Columns and labels:
[1] = biological target: T1, hT1R1/hT1R3 umami receptor (Homo sapiens, UniProt Q7RTX0+Q7RTX1); experiment: In vitro hT1R1/hT1R3 umami taste receptor activation assay (FLIPR, dose response); assay type: cell-based; settings: read-out: EC50 for activation of a hT1R1/hT1R3 umami receptor expressed in an HEK293 cell line
T1 construct: expressed in transfected cells; host or cells: HEK293 derivative stably expressing Gα15, clone I-17, expression induced with mifepristone
T1 sequence (Q7RTX1 21-841): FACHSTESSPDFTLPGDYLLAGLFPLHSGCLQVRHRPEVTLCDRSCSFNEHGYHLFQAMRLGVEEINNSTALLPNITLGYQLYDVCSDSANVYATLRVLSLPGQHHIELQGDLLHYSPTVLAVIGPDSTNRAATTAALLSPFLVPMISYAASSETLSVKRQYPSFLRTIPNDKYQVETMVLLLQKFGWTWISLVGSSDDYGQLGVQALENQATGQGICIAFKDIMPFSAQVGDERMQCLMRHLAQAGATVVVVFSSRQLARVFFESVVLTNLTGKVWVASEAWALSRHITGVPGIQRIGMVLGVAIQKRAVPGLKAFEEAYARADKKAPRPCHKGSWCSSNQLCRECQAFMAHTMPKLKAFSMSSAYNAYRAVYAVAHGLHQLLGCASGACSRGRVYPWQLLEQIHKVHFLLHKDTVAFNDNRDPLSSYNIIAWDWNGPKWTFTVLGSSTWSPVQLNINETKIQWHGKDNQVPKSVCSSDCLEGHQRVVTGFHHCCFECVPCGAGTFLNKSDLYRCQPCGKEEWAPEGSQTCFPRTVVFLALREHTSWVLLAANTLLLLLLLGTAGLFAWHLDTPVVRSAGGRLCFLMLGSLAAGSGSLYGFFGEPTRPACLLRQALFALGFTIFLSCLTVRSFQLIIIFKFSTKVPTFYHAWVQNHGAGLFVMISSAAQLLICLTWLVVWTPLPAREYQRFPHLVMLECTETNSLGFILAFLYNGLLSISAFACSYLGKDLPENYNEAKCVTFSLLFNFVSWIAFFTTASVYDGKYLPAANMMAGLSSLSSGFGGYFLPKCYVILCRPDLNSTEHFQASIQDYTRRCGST
T1 sequence (Q7RTX0 21-852): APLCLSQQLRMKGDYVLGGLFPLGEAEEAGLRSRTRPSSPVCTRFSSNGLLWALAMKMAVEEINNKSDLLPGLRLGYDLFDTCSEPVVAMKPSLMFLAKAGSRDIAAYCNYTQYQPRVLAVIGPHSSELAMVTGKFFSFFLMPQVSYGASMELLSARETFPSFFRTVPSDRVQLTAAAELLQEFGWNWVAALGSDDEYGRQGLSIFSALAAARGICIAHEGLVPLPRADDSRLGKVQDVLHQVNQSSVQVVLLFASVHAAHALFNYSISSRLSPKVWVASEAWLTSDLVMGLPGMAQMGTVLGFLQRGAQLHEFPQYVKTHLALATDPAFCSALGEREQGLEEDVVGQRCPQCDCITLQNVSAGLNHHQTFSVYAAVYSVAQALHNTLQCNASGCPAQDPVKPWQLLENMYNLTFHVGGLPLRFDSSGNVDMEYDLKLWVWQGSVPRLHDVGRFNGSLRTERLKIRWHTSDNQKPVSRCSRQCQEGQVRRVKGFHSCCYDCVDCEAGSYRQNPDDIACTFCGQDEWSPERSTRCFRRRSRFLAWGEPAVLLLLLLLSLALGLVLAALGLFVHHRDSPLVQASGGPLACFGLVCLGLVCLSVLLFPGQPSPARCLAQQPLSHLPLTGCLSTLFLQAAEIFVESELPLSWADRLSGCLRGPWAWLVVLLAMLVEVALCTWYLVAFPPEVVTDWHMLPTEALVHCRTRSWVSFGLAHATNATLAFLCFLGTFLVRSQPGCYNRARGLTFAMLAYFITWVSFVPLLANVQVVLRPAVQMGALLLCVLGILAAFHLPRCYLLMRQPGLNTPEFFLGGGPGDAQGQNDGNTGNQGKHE

[2] = system: human panelists; experiment: Umami/savory flavor experiments using human panelists (trained panel, difference from reference); assay type: in vivo; settings: savory taste; for Taste Data: concentration of cpd that with 12 mM MSG is as strong as 12 mM MSG + 100 μM IMP: aqueous solution with 12 mM MSG; for Taste Data: concentration of cpd (alone) as strong as 12 mM MSG: without MSG
Experimental: General Panelist Selection: Basic screening of sensory taste testers: Potential panelists were tested for their abilities to rank and rate intensities of solutions representing the five basic tastes. Panelists ranked and rated intensity of five different concentrations of each of the five following compounds: sucrose (sweet), sodium chloride (salty), citric acid (sour), caffeine (bitter), and monosodium glutamate (savory). In order to be selected for participation in testing, panelists needed to correctly rank and rate samples for intensity, with a reasonable number of errors. […]
Trained Panelist Selection: A trained expert panel was used to further evaluate compounds that had been tested with the preliminary taste test.
Panelists for the trained panel were selected from the larger group of qualifying taste panelists. Panelists were further trained on savory taste by ranking and rating experiments using MSG and IMP combinations. Panelists completed a series of ranking, rating, and difference from reference tests with savory solutions. In ranking and rating experiments, panelists evaluated easy MSG concentrations (0, 6, 18, 36 mM) and more difficult MSG concentrations (3, 6, 12, 18 mM MSG) in water.
Compound testing with Trained Panel: Compounds tested by the trained panel were evaluated in difference from reference experiments. […] Test samples were solutions with varying amounts of MSG, IMP, and the compound. Typically, each session compares the reference sample to numerous test samples. […] Compounds were tested against the reference in samples with and without 12 mM MSG. All samples were presented in 10 ml volumes at room temperature. Two sessions were completed for each compound tested to evaluate panel reproducibility.

[3] = biological target: T2, hT1R2/hT1R3 sweet receptor (Homo sapiens, UniProt Q7RTX0+Q8TE23); experiment: In vitro hT1R2/hT1R3 sweet taste receptor activation assay (FLIPR, dose response); assay type: cell-based; settings: read-out: EC50 for activation of a hT1R2/hT1R3 sweet receptor expressed in an HEK293 cell line
T2 construct: expressed in transfected cells; host or cells: HEK293 derivative stably expressing Gα15, clone S-9
T2 sequence (Q8TE23 20-839): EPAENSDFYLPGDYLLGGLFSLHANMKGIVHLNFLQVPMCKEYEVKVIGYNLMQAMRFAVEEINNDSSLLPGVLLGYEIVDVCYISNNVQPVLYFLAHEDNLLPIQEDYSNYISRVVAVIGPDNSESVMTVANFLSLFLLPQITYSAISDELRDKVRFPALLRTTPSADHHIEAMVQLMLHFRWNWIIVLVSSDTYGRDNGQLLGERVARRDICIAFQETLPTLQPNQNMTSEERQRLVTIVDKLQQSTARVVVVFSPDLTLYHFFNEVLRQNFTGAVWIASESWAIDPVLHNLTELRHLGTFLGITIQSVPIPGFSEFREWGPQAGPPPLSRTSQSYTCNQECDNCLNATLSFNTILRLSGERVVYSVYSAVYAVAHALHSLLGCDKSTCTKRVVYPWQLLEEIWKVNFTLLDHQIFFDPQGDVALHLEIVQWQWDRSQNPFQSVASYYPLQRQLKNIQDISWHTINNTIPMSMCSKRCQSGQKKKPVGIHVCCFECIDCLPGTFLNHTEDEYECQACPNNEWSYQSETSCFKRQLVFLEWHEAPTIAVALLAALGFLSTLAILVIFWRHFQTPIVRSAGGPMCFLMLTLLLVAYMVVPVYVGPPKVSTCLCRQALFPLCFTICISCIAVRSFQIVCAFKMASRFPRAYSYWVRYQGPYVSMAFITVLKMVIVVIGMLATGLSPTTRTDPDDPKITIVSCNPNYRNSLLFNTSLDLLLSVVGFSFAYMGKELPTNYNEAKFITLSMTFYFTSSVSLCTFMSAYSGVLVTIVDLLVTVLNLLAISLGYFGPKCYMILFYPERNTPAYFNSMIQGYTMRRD
T2 sequence (Q7RTX0 21-852): T1 sequence (Q7RTX0 21-852)
Summary of the method: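 S-9 cells expressing hT1R2/hT1R3, loaded with 4 µM Fluo-3AM 1 h at room temperature. Calcium response on FLIPR at room temperature in D-PBS, with 10 concentrations from 60 nM to 30 µM in duplicate.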

| SMILES | EC50 [1] | Taste Data: concentration of cpd that with 12 mM MSG is as strong as 12 mM MSG + 100 μM IMP [2] | Taste Data: concentration of cpd (alone) as strong as 12 mM MSG [2] | EC50 [3] | melting point |
| --- | --- | --- | --- | --- | --- |
| COc1ccc(C(=O)N[C@H]2CCc3ccccc32)cc1C [Example 121-1, (S)-N-(2,3-Dihydro-1H-inden-1-yl)-4-methoxy-3-methylbenzamide] | 0.08 µM | 12 mM MSG + 1 μM cpd as strong as | 1 μM cpd as strong as 12 mM MSG | – | – |
| Cc1cc(C)c2c(c1)C(NC(=O)c1conc1C)CCC2 (stereo not drawn) [Example 166, N-(5,7-dimethyl-1,2,3,4-tetrahydronaphthalen-1-yl)-3-methylisoxazole-4-carboxamide] | – | – | – | 0.76 µM | 57 to 58 °C |
| COc1cc(C)ccc1CNC(=O)C(=O)NCCc1ccccn1 [Example 132, N-(2-methoxy-4-methylbenzyl)-N′-(2-(pyridin-2-yl)ethyl)oxalamide] | 0.04 µM | 12 mM MSG + 1 μM cpd as strong as | 1 μM cpd as strong as 12 mM MSG | – | 128 to 131 °C |
| O=C(N[C@@H]1CCCc2c(O)cccc21)c1cccc(Cl)c1O (stereo in doubt) [Example 180, 3-Chloro-2-hydroxy-N-(5-hydroxy-1,2,3,4-tetrahydronaphthalen-1-yl)benzamide] | – | – | – | 1.17 µM | 148 to 151 °C |
| COc1ccc(CNC(=O)C(=O)NCCc2ccccn2)c(OC)c1 [Example 123, N-(2,4-Dimethoxy-benzyl)-N′-(2-pyridin-2-yl-ethyl)-oxalamide] | 0.09 µM | 12 mM MSG + 1 μM cpd as strong as | 1 μM cpd as strong as 12 mM MSG | – | – |
| COC[C@@H](CC(C)C)NC(=O)c1ccc(OC)c(C)c1 [Example 104, 4-Methoxy-N-(1-methoxymethyl-3-methyl-butyl)-3-methyl-benzamide] | 0.24 µM | 12 mM MSG + 3 μM cpd as strong as | – | – | – |
| CCCC(CCC)NC(=O)c1ccc2c(c1)OCO2 [Example 1, N-(heptan-4-yl)benzo[d][1,3]dioxole-5-carboxamide] | 0.2 µM | 12 mM MSG + 3 μM cpd as strong as | – | – | – |
| COC(=O)[C@@H](CC(C)C)NC(=O)c1cc(C)c(C)o1 [Example 98, (R)-methyl 2-(2,3-dimethylfuran-5-carboxamido)-4-methylpentanoate] | 0.59 µM | 12 mM MSG + 10 μM cpd as strong as | – | – | – |
| COc1ccc2c(c1)CCC[C@H]2NC(=O)c1cccc(Cl)c1O [Example 183, (R)-3-Chloro-2-hydroxy-N-(6-methoxy-1,2,3,4-tetrahydronaphthalen-1-yl)benzamide] | – | – | – | 0.85 µM | 111 to 113 °C |
| COc1cccc2c1CCCC2NC(=O)c1cccc(Cl)c1O (stereo not drawn) [Example 167, 3-chloro-2-hydroxy-N-(5-methoxy-1,2,3,4-tetrahydronaphthalen-1-yl) benzamide] | – | – | – | 0.21 µM | 175 to 176 °C |
| COC(=O)[C@@H](CC(C)C)NC(=O)c1ccc2c(c1)OCO2 [Example 6, (R)-methyl 2-(benzo[d][1,3]dioxole-6-carboxamido)-4-methylpentanoate] | 0.34 µM | 12 mM MSG + 10 μM cpd as strong as | – | – | – |
| Cc1c(F)c(F)c(C(=O)NC2CCCCC2C)c(F)c1F (stereo not drawn) [Example 162, 2,3,5,6-tetrafluoro-4-methyl-N-(2-methylcyclohexyl)benzamide] | – | – | – | 0.39 µM | 202 to 204 °C |
| Cc1c(F)c(F)c(C(=O)NC(C(C)C)C(C)C)c(F)c1F [Example 165, N-(2,4-dimethylpentan-3-yl)-2,3,5,6-tetrafluoro-4-methylbenzamide] | – | – | – | 0.81 µM | 184 to 187 °C |
| COC[C@@H](CC(C)C)NC(=O)c1ccc(C)c(C)c1 [Example 71, (R)-N-(1-methoxy-4-methylpentan-2-yl)-3,4-dimethylbenzamide] | 0.2 µM | 12 mM MSG + 3 μM cpd as strong as | – | – | – |
| COc1cc(C)ccc1CNC(=O)C(=O)NCCc1ccc(C)cn1 [Example 157, N^1-(2-methoxy-4-methylbenzyl)-N^2-(2-(5-methylpyridin-2-yl)ethyl)oxalamide] | 0.03 µM | 12 mM MSG + 0.3 μM cpd as strong | 0.3 μM cpd as strong as 12 mM MSG | – | 133.5 to 134 °C |
